{"source": "patent US20230242494A1", "about": "“MALONITRILE DERIVATIVES” (Hoffmann-La Roche Inc., priority 2020, published 2023)", "data": [{"biological_target": "T1, human cGAS (residues 161-522) (Homo sapiens, UniProt Q8N884)", "T1 construct": "human cGAS (residues 161-522); made in house", "T1 sequence (Q8N884 161-522)": "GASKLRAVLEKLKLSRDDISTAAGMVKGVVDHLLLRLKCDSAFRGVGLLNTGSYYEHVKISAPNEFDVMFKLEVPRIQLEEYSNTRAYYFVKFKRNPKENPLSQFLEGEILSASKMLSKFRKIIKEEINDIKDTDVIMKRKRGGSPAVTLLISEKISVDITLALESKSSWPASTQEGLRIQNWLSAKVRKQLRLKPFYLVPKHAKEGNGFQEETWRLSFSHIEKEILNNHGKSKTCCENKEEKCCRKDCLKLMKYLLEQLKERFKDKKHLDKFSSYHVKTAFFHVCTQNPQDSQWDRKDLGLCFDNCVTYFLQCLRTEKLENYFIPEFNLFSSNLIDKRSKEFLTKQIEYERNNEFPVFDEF", "assay": "cGAS Activity Assay—Malachite Green", "format": "biochemical", "conditions": "recombinant purified human cGAS 25 nM; 80 μM ATP, 80 μM GTP, 100 nM ISD; 4 hour at RT; phosphate detection by Malachite Green", "experimental": "Compounds were tested for cGAS inhibition in a coupled enzymatic assay based on Phosphate detection by Malachite Green. Final assay conditions were 20 mM TRIS pH 7.5 (Applichem), 5 mM MgCl2 (Sigma) and 0.01% BSA (Sigma) supplemented with 80 μM ATP (Sigma), 80 μM GTP (Sigma) and 100 nM Interferon Stimulating DNA (ISD) (Microsynth). Recombinantly expressed purified human cGAS (residues 161-522) was used at 25 nM.\nAll compounds were prepared as 10 mM stock solutions in DMSO and a 16 pt dilution series in DMSO with a dilution factor of 2.5 was prepared. 1 μL of DMSO dilution series was transferred to 32.3 μL reaction buffer, mixed by pipetting up/down, spun for 1 minute at 3000 rpm and was visually inspected for precipitation. 5 μL of 3-fold enzyme stock solution were transferred to an empty 384-well Black/Clear Flat Bottom Polystyrene NBS (Corning) rows 3-24. Rows 1-2 were filled with assay buffer. Plates were spun 10 seconds at 1000 rpm (164×g). 5 μL of compound intermediate dilution was added and mixed by pipetting up/down to rows 3-24. Rows 1-2 were filled with 3.1% DMSO assay buffer. Plates were spun 10 seconds at 1000 rpm (164×g). 5 μL 3-fold Nucleotide/DNA mix was added to all wells to start the reaction. Plates were spun 10 seconds at 1000 rpm (164×g) and incubated for 4 hour at room temperature (RT) in the dark. 5 μL 4 U/ml PPase (Sigma) were added to all wells. Plates spun 10 seconds at 1000 rpm (164×g). 10 μL BioMol green Solution (Enzo Life Sciences) was added to all wells. Plates spun 10 seconds at 1000 rpm (164×g) and incubated 30 minutes at RT in the dark. Absorbance data was collected 620 nm on an EnVision Multilable Reader (Perkin Elmer) and the following measurement settings were used: excitation filter photometric was 620 nm; excitation from the top; measurement height was 1 mm; number of flashes was 30; number of flashes integrated was 1.\nAll plates are checked for abnormalities and outliers in the Blank Control (no protein, row 1) and the Neutral Control (no compound, row 2) are excluded using the 3*SD rule. Data was normalized to 0 and 100% by Blank and Neutral Control and each curve was fitted and judged using the 4 parameter logistic equation to determine the IC50 for cGAS inhibition.\nTable 13 provides IC50 values (μM) for cGAS inhibition obtained for particular examples of the present invention as measured by the above-described assay.", "units": {"IC50": "nM"}, "values": [{"smiles": "Cc1oncc1/C(O)=C(\\C#N)C(=O)Nc1ccc(C(=O)N(C)C)cc1", "note": "[Example 35, 4-[[(Z)-2-cyano-3-hydroxy-3-(5-methylisoxazol-4-yl)prop-2-enoyl]amino]-N,N-dimethyl-benzamide]", "IC50": 710}, {"smiles": "CNC(=O)c1ccc(NC(=O)/C(C#N)=C(\\O)c2cnoc2C)cc1", "note": "[Example 36, 4-[[(Z)-2-cyano-3-hydroxy-3-(5-methylisoxazol-4-yl)prop-2-enoyl]amino]-N-methyl-benzamide]", "IC50": 370}, {"smiles": "COc1ccc(NC(=O)/C(C#N)=C(\\O)c2cnoc2C)nc1", "note": "[Example 37, (Z)-2-cyano-3-hydroxy-N-(5-methoxy-2-pyridyl)-3-(5-methylisoxazol-4-yl)prop-2-enamide]", "IC50": 420}, {"smiles": "Cc1oncc1/C(O)=C(\\C#N)C(=O)Nc1ccc(C(=O)c2ccccc2)cc1", "note": "[Example 38, (Z)-N-(4-benzoylphenyl)-2-cyano-3-hydroxy-3-(5-methylisoxazol-4-yl)prop-2-enamide]", "IC50": 1160}, {"smiles": "COc1ccc(S(=O)(=O)c2ccc(NC(=O)/C(C#N)=C(\\O)c3cnoc3C)cc2)cc1", "note": "[Example 39, (Z)-2-cyano-3-hydroxy-N-(4-((4-methoxyphenyl)sulfonyl)phenyl)-3-(5-methylisoxazol-4-yl)acrylamide]", "IC50": 490}, {"smiles": "Cc1oncc1/C(O)=C(\\C#N)C(=O)Nc1ccc(S(=O)(=O)Nc2nccs2)cc1", "note": "[Example 40, (Z)-2-cyano-3-hydroxy-3-(5-methylisoxazol-4-yl)-N-[4-(thiazol-2-ylsulfamoyl)phenyl]prop-2-enamide]", "IC50": 140}, {"smiles": "Cc1oncc1/C(O)=C(\\C#N)C(=O)Nc1ccc(OC2COC2)cc1", "note": "[Example 41, (Z)-2-cyano-3-hydroxy-3-(5-methylisoxazol-4-yl)-N-[4-(oxetan-3-yloxy)phenyl]prop-2-enamide]", "IC50": 1290}, {"smiles": "CC(=O)Nc1ccc(NC(=O)/C(C#N)=C(\\O)c2cnoc2C)cc1", "note": "[Example 42, (Z)-N-(4-acetamidophenyl)-2-cyano-3-hydroxy-3-(5-methylisoxazol-4-yl)prop-2-enamide]", "IC50": 270}, {"smiles": "Cc1nnc(NS(=O)(=O)c2ccc(NC(=O)/C(C#N)=C(\\O)c3cnoc3C)cc2)s1", "note": "[Example 43, (Z)-2-cyano-3-hydroxy-3-(5-methylisoxazol-4-yl)-N-[4-[(5-methyl-1,3,4-thiadiazol-2-yl)sulfamoyl]phenyl]prop-2-enamide]", "IC50": 210}, {"smiles": "Cc1oncc1/C(O)=C(\\C#N)C(=O)Nc1ccc(C(N)=O)cc1", "note": "[Example 44, 4-[[(Z)-2-cyano-3-hydroxy-3-(5-methylisoxazol-4-yl)prop-2-enoyl]amino]benzamide]", "IC50": 240}, {"smiles": "Cc1oncc1/C(O)=C(\\C#N)C(=O)Nc1ccc(S(=O)(=O)Nc2ncccn2)cc1", "note": "[Example 45, (Z)-2-cyano-3-hydroxy-3-(5-methylisoxazol-4-yl)-N-[4-(pyrimidin-2-ylsulfamoyl)phenyl]prop-2-enamide]", "IC50": 90}, {"smiles": "COc1cnc(NC(=O)/C(C#N)=C(\\O)c2cnoc2C)nc1", "note": "[Example 46, (Z)-2-cyano-3-hydroxy-N-(5-methoxypyrimidin-2-yl)-3-(5-methylisoxazol-4-yl)prop-2-enamide]", "IC50": 70}, {"smiles": "Cc1oncc1/C(O)=C(\\C#N)C(=O)Nc1ccc(S(=O)(=O)N2CCOCC2)cc1", "note": "[Example 47, (Z)-2-cyano-3-hydroxy-3-(5-methylisoxazol-4-yl)-N-(4-(morpholinosulfonyl)phenyl)acrylamide]", "IC50": 200}, {"smiles": "CCCNS(=O)(=O)c1ccc(NC(=O)/C(C#N)=C(\\O)c2cnoc2C)cc1", "note": "[Example 48, (Z)-2-cyano-3-hydroxy-3-(5-methylisoxazol-4-yl)-N-(4-(N-propylsulfamoyl)phenyl) acrylamide]", "IC50": 100}, {"smiles": "Cc1oncc1/C(O)=C(\\C#N)C(=O)Nc1cccc(S(=O)(=O)c2ccccc2)c1", "note": "[Example 49, (Z)-2-cyano-3-hydroxy-3-(5-methylisoxazol-4-yl)-N-(3-(phenylsulfonyl)phenyl) acrylamide]", "IC50": 2500}, {"smiles": "Cc1cc(C(F)(F)F)ccc1NC(=O)/C(C#N)=C(\\O)c1cnoc1C", "note": "[Example 50, (Z)-2-cyano-3-hydroxy-N-(2-methyl-4-(trifluoromethyl)phenyl)-3-(5-methylisoxazol-4-yl)acrylamide]", "IC50": 1050}]}]}
